Measurements from ChEMBL document CHEMBL5365408, “Small molecule inhibitors of PCSK9. SAR investigations of head and amine groups” (Bioorg Med Chem Lett, 2023).

Key:
[1] = target: T1, Proprotein convertase subtilisin/kexin type 9 (Homo sapiens, UniProt Q8NBP7); experiment: Inhibition of full length human PCSK9 expressed in human Huh-7 cells by ELISA analysis; type: cell-based
[2] = Selectivity index, ratio of IC50 for cytotoxicity against rat Bone marrow cell assessed as inhibition of cell growth by celltiter-glo assay to IC50 for inhibition of full length human PCSK9 expressed in human Huh-7 cells by ELISA analysis
[3] = Cytotoxicity against rat Bone marrow cell assessed as inhibition of cell growth with puromycin as high potent effect standard by celltiter-glo assay; type: toxicity, cell-based; details: rat bone marrow cells
[4] = system: Bone marrow cell; experiment: (§1) Cytotoxicity against rat Bone marrow cell assessed as inhibition of cell growth with (R)-4-(3H-[1,2,3]triazolo[4,5-b]pyridin-3-yl)-N-(3-chloropyridin-2-yl)-N-(piperidin-3-yl) benzamide as high potent effect standard by celltiter-glo assay; type: toxicity, cell-based; details: bone marrow cell
[5] = as §1; type: toxicity, cell-based; details: rat, rat bone marrow cells
[6] = target: T1, Proprotein convertase subtilisin/kexin type 9; experiment: Inhibition of full length human PCSK9 expressed in human Huh-7 cells at 20 uM by ELISA analysis relative to control; type: cell-based
[7] = Cmax in Sprague-Dawley rat at 1 mg/kg, iv; type: ADME, organism-based; set-up: dose 1 mg/kg, route iv; details: in vivo
[8] = Lipophilicity, log D of the compound by shake flask method; type: physicochemical; details: octanol/water
[9] = system: Mus musculus; experiment: Downregulation of PCSK9 level in po dosed mouse; type: functional, organism-based; details: dose 10-300 mg/kg
[10] = Apparent permeability across apical to basolateral side in MDCK-MDR1 cells; type: ADME, cell-based, Canis lupus familiaris; details: dog, read-out: permeability
[11] = Apparent permeability of compound in MDCK-II cells; type: ADME, cell-based, Canis lupus familiaris; details: dog, read-out: permeability
[12] = Volume of distribution at steady state in Sprague-Dawley rat at 1 mg/kg, iv; type: ADME, organism-based; details: in vivo, read-out: Vdss
[13] = Oral bioavailability in Sprague-Dawley rat at 5 mg/kg; type: ADME, organism-based; details: in vivo
[14] = Toxicity in rat assessed as reduction in B cells in peripheral blood at 150 mg/kg, po measured for 14 days; type: organism-based; details: in vivo, 336 h, time 14 day
[15] = target: CYP2C9 (Homo sapiens, UniProt P11712); experiment: Inhibition of CYP2C9 (unknown origin) at 3 uM relative to control; type: ADME
CYP2C9, sequence (P11712 whole entry): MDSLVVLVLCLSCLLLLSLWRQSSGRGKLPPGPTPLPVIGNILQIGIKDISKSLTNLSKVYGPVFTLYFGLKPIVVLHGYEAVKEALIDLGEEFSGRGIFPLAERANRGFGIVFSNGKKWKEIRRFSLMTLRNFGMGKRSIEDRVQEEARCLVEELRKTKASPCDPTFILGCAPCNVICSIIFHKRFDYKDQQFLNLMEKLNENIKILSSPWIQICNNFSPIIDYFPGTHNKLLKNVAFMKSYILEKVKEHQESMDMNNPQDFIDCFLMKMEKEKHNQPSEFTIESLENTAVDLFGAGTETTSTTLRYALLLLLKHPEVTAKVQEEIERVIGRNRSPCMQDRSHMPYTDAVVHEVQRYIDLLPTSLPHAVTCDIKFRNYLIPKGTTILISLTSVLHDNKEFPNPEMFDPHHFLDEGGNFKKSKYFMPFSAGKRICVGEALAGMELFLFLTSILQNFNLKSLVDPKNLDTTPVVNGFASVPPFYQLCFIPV

[16] = Apparent permeability across basolateral to apical side in MDCK-MDR1 cells; type: ADME, cell-based, Canis lupus familiaris; details: dog, read-out: permeability
[17] = Unbound fraction in mouse plasma by equilibrium dialysis analysis; type: ADME, cell-free
[18] = Toxicity in rat assessed as reduction in T helper cells in peripheral blood at 150 mg/kg, po measured for 14 days; type: organism-based, T-cell; details: in vivo, 336 h, time 14 day
[19] = Toxicity in rat assessed as reduction in T cells in peripheral blood at 150 mg/kg, po measured for 14 days; type: organism-based, T-cell; details: in vivo, 336 h, time 14 day
[20] = Half life in Sprague-Dawley rat at 1 mg/kg, iv; type: ADME, organism-based; details: in vivo
[21] = Cytotoxicity against human CD34-positive cell assessed as reduction in cell growth by celltiter-glo assay; type: toxicity, cell-based; details: human CD34-positive cells
[22] = Cmax in rat at 25 mg/kg, po; type: ADME, organism-based; set-up: dose 25 mg/kg, route po; details: in vivo
[23] = target: Voltage-gated inwardly rectifying potassium channel KCNH2 (Homo sapiens, UniProt Q12809); experiment: Inhibition of hERG by patch clamp assay; type: toxicity
Voltage-gated inwardly rectifying potassium channel KCNH2, sequence (Q12809 whole entry): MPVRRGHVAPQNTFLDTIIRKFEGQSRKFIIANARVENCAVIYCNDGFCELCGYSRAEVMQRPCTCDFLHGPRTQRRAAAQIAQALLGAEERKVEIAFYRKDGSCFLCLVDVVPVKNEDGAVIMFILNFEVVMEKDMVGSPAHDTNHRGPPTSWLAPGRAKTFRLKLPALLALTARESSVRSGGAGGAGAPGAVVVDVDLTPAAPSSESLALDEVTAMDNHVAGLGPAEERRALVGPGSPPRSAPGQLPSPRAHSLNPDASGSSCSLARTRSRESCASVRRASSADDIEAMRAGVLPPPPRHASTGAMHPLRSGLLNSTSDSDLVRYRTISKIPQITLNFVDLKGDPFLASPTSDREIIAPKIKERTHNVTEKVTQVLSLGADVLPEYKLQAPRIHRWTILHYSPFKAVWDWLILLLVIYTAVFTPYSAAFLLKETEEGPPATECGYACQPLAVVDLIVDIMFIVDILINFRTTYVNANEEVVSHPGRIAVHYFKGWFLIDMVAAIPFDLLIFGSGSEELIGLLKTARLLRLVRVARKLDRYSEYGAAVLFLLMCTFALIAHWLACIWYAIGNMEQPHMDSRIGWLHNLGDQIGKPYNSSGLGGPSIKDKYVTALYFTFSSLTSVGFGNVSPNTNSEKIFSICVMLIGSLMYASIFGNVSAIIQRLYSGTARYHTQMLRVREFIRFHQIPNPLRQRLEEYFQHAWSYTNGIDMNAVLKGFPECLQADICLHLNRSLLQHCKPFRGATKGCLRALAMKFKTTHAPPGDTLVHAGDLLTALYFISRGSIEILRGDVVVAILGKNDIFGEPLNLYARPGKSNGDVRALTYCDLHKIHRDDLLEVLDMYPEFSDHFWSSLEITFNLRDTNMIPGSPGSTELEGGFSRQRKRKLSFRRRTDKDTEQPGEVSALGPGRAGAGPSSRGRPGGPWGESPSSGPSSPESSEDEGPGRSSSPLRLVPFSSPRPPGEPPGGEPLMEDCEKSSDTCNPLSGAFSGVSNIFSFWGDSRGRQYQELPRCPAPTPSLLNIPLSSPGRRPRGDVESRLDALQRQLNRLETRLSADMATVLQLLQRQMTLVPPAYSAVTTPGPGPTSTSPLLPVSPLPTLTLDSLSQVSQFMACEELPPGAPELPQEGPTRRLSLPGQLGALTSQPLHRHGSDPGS

[24] = Toxicity in rat assessed as mortality at 25 to 400 mg/kg, po measured for 14 days; type: organism-based; details: in vivo, 336 h, dose 25-400 mg/kg, time 14 day
[25] = target: CYP3A4 (Homo sapiens, UniProt P08684); experiment: Inhibition of CYP3A4 (unknown origin) at 3 uM relative to control; type: ADME
CYP3A4, sequence (P08684 whole entry): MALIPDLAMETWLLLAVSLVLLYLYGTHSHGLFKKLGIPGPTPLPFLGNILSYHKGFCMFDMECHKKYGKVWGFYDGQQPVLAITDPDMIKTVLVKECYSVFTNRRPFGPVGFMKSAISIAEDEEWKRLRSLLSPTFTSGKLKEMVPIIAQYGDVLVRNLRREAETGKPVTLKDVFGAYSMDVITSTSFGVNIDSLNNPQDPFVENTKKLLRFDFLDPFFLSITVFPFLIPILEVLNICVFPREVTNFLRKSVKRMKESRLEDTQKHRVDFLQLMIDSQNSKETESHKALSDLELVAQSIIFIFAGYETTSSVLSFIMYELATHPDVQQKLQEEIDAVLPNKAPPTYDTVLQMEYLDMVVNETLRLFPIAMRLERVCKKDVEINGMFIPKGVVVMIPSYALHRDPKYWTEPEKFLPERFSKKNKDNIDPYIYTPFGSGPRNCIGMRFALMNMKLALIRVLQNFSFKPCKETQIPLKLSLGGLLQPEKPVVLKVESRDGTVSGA

[26] = target: CYP2D6 (Homo sapiens, UniProt P10635); experiment: Inhibition of CYP2D6 (unknown origin) at 3 uM relative to control; type: ADME
CYP2D6, sequence (P10635 whole entry): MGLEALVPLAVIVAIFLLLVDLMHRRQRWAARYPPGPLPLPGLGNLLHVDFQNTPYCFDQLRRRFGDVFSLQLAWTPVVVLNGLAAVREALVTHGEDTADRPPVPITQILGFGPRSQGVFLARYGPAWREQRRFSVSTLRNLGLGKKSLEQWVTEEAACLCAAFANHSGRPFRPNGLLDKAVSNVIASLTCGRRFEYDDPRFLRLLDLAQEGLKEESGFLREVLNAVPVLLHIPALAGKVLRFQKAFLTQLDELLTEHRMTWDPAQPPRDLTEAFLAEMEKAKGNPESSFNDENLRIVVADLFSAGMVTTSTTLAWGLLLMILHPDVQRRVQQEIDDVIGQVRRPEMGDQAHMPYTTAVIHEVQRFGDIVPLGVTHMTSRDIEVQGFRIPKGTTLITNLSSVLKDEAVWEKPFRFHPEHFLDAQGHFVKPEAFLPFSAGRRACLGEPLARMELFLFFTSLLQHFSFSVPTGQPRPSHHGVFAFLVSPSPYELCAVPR

[27] = Clearance in Sprague-Dawley rat at 1 mg/kg, iv; type: ADME, organism-based; details: in vivo
[28] = Toxicity in rat assessed as reduction in T cytotoxic cells in peripheral blood at 150 mg/kg, po measured for 14 days; type: organism-based, T-cell; details: in vivo, 336 h, time 14 day
[29] = Unbound fraction in human plasma by equilibrium dialysis analysis; type: ADME, cell-free
[30] = target: T2, CYP1A2 (Homo sapiens, UniProt P05177); experiment: Inhibition of CYP1A2 (unknown origin) at 3 uM relative to control; type: ADME
T2 sequence (P05177 whole entry): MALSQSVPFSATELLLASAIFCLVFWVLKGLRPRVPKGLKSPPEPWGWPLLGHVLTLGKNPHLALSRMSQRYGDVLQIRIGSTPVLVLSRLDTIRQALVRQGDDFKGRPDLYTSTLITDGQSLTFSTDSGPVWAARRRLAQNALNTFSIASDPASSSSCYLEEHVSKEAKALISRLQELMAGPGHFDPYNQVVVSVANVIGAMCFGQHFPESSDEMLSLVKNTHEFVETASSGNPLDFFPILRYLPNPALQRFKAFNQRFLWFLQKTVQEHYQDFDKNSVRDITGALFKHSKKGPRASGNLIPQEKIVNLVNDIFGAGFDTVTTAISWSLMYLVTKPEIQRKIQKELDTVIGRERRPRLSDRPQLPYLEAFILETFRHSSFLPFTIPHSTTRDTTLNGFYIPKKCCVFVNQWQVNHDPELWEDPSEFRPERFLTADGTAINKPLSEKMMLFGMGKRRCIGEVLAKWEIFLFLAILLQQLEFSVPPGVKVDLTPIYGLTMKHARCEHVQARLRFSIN

[31] = Unbound fraction in rat plasma by equilibrium dialysis analysis; type: ADME, cell-free

T1 sequence (Q8NBP7 31-152 limits assumed): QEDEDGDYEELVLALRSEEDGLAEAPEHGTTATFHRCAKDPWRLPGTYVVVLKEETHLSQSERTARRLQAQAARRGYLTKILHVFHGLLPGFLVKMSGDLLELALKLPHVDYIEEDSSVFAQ
T1 sequence (Q8NBP7 153-692 limits assumed): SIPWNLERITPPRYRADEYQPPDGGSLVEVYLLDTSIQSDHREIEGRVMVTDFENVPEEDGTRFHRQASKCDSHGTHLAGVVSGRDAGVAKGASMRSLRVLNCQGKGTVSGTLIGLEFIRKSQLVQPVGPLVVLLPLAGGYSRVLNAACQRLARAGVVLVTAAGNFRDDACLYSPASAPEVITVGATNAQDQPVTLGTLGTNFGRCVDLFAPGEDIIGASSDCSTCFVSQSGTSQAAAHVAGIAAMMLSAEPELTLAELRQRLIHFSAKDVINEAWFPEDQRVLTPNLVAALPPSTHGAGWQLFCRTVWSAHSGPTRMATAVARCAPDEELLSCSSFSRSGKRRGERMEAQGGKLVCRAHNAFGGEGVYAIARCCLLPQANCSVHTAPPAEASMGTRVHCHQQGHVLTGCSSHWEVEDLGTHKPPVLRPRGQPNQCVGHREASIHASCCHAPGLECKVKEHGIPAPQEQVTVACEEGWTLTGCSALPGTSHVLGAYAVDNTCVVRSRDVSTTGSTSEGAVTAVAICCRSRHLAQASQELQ

O=C(c1ccc(-n2nnc3cccnc32)cc1)N(c1nccn1C1CC1)[C@@H]1CCCNC1
IC50 [1]: 6840 nM
Ratio IC50 [2]: 0.18
IC50 [3]: 1240 nM

C[C@@H]1CNC[C@H](N(C(=O)c2ccc(-n3nnc4cccnc43)cc2)c2ncccc2Cl)C1
IC50 [1]: 17100 nM
IC50 [4]: 23.3 µM

CC(=O)NC[C@H]1CNC[C@H](N(C(=O)c2ccc(-n3nnc4cccnc43)cc2)c2ncccc2Cl)C1 (racemic)
IC50 [1]: > 20000 nM

Cc1cccnc1N(C(=O)c1ccc(-n2nnc3cccnc32)cc1)[C@@H]1CCCNC1
IC50 [1]: 1970 nM
Ratio IC50 [2]: 0.5
IC50 [3]: 990 nM

O=C(c1ccc(-n2nnc3cccnc32)cc1)N(c1ncccc1Cl)[C@H]1CNC[C@@H](CO)C1 (racemic)
IC50 [5]: > 100 µM
inhibition [6]: 11%

Cc1cccnc1N(C(=O)c1ccc(-c2cnn3cccnc23)cc1)[C@@H]1CCCNC1
IC50 [1]: 2250 nM
Cmax [7]: 121 ng/mL
logD [8]: 0.6
Activity [9]: Dose-Dependent Effect
Papp A→B [10]: 0.4 ×10⁻⁶ cm/s
Papp [11]: 7 ×10⁻⁶ cm/s
Vd [12]: 3 L/kg
Ratio IC50 [2]: 7.47
bioavailability [13]: 20%
Activity [14]: Non-Toxic
inhibition at 3 µM [15]: < 5%
Papp B→A [16]: 15.7 ×10⁻⁶ cm/s
Fu [17]: 0.37%
Activity [18]: Non-Toxic
Activity [19]: Non-Toxic
half-life [20]: 102 min
IC50 [21]: 13.6 µM
Cmax [22]: 255 ng/mL
IC50 [23]: 56.5 µM
Activity [24]: Non-Toxic
inhibition at 3 µM [25]: < 5%
inhibition at 3 µM [26]: < 5%
clearance [27]: 43.6 mL/min/kg
Activity [28]: Non-Toxic
IC50 [5]: 18.2 µM
Fu [29]: 0.54%
IC50 [3]: 16800 nM
inhibition at 3 µM [30]: < 5%
Fu [31]: 0.32%

COc1cccnc1N(C(=O)c1ccc(-c2cnn3cccnc23)cc1)[C@@H]1CCCNC1
IC50 [1]: 16900 nM

CO[C@H]1CNC[C@H](N(C(=O)c2ccc(-n3nnc4cccnc43)cc2)c2ncccc2Cl)C1 (racemic)
IC50 [1]: > 20000 nM
IC50 [5]: 76.6 µM

CNC(=O)OC[C@H]1CNC[C@H](N(C(=O)c2ccc(-n3nnc4cccnc43)cc2)c2ncccc2Cl)C1 (racemic)
IC50 [1]: > 20000 nM

Cc1ccnc(N(C(=O)c2ccc(-n3nnc4cccnc43)cc2)[C@@H]2CCCNC2)c1Cl
IC50 [1]: 1090 nM
Ratio IC50 [2]: 0.35
IC50 [3]: 380 nM

Cc1nccnc1N(C(=O)c1ccc(-n2nnc3cccnc32)cc1)[C@@H]1CCCNC1
IC50 [1]: 1840 nM
Ratio IC50 [2]: 1.28
IC50 [5]: 10.9 µM
IC50 [3]: 2360 nM

C[C@@H]1CNC[C@H](N(C(=O)c2ccc(-n3nnc4cccnc43)cc2)c2ncccc2Cl)C1 (racemic)
IC50 [5]: 35.6 µM

N#Cc1cccnc1N(C(=O)c1ccc(-c2cnn3cccnc23)cc1)[C@@H]1CCCNC1
IC50 [1]: > 20000 nM

O=C(c1ccc(-n2nnc3cccnc32)cc1)N(c1nccc2ccsc12)[C@@H]1CCCNC1
IC50 [1]: 730 nM
Ratio IC50 [2]: 0.38
IC50 [3]: 280 nM

C[C@H]1CNC[C@H](N(C(=O)c2ccc(-n3nnc4cccnc43)cc2)c2ncccc2Cl)C1 (racemic)
IC50 [5]: 37.2 µM

O=C(c1ccc(-c2cnn3cccnc23)cc1)N(c1ncccc1-c1ccccc1)[C@@H]1CCCNC1
IC50 [1]: 1800 nM
Ratio IC50 [2]: 2.43
IC50 [3]: 4390 nM

O=C(c1ccc(-n2nnc3cccnc32)cc1)N(c1ncccc1Cl)[C@@H]1CCCNC1
Cmax [22]: 312 ng/mL
IC50 [5]: 3.23 µM
IC50 [3]: 1150 nM

NC(=O)NC[C@H]1CNC[C@H](N(C(=O)c2ccc(-n3nnc4cccnc43)cc2)c2ncccc2Cl)C1 (racemic)
IC50 [1]: > 20000 nM
